Target: T1, UCHL1 (Homo sapiens, UniProt P09936)
T1 sequence (P09936 1-220): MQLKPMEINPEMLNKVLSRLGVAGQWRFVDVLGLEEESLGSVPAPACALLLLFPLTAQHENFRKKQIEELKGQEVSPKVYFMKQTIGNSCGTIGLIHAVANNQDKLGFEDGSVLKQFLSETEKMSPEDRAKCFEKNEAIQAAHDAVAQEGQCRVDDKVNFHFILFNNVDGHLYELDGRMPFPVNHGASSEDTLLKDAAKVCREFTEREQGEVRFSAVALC
Assay: in vitro DUB IC50 assay
Type: biochemical

- IC50: 0.23 µM
SMILES: N#CN1CC[C@H](C(=O)Nc2ncc(N3CCOCC3)s2)C1 [6RK73]

— PMC7611208 (Clinical cancer research : an official journal of the …, 2019)
